Test results from PMC5681660, “Reduced hepatitis B and D viral entry using clinically applied drugs as novel inhibitors of the bile acid transporter NTCP” (Scientific Reports, 2017).
Where a name gives a salt, the structure may show the parent alone. Read-outs that look alike come from different tables or passages of the source.

Columns and labels:
[1] = target: T1, human NTCP (Homo sapiens, UniProt Q14973); experiment: Screening taurocholate uptake assay (96-well, [14C]taurocholate, 10 µM drug)
T1 sequence (Q14973 1-349): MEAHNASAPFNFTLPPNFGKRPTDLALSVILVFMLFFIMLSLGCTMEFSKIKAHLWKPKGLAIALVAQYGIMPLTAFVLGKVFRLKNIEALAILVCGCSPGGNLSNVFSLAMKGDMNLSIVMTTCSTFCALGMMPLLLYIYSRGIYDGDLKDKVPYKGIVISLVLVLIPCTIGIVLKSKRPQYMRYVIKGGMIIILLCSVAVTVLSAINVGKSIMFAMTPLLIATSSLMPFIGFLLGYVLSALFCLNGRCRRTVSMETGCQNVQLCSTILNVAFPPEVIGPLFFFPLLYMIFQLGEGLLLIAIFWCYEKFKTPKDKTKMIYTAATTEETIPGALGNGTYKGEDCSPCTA

[2] = target: T1, human NTCP; experiment: Screening fluorescent competitive Myrcludex B-FITC binding assay (96-well, 10 µM drug)
[3] = Prestwick library screen, 10 µM drug, B-score of taurocholate uptake
[4] = combined ranking from functional and binding assay B-scores
[5] = Prestwick library screen, 10 µM drug, B-score of Myrcludex B-FITC binding
[6] = Prestwick library screen, taurocholate uptake, 10 µM drug
[7] = ranking score beside the functional and binding assay B-scores of the screen
[8] = Prestwick library screen, Myrcludex B-FITC binding, 10 µM drug
[9] = combined ranking from functional and binding screening assays
[10] = screen, 10 µM drug, taurocholate uptake
[11] = screen, 10 µM drug, Myrcludex B-FITC binding

Row | SMILES | B-score functional assay [1, 6] | Ranking score [1, 7] | B-score binding assay [2, 8] | Ranking score [1, 9] | B-score functional assay [1, 10] | B-score binding assay [2, 11] | also measured
1 | CCC(C)n1ncn(-c2ccc(N3CCN(c4ccc(OCC5COC(Cn6cncn6)(c6ccc(Cl)cc6Cl)O5)cc4)CC3)cc2)c1=O (stereo not drawn) [Itraconazole] | – | – | – | – | – | – | B-score functional assay [1, 3]: 0.058; Ranking score [1, 4]: 871.813; B-score binding assay [2, 5]: 1.124
2 | CO[C@@H]1[C@@H](O[C@@H]2O[C@H](C)[C@@H](O[C@H]3C[C@@](C)(O)[C@@H](OC(=O)CC(C)C)[C@H](C)O3)[C@H](N(C)C)[C@H]2O)[C@@H](CC=O)C[C@@H](C)[C@@H](O)/C=C/C=C/C[C@@H](C)OC(=O)C[C@H]1OC(C)=O [Josamycin] | 0.552 | 744.048 | -0.039 | – | – | – | –
3 | NC[C@H]1O[C@H](O[C@H]2[C@H](O)[C@@H](O[C@H]3O[C@H](CO)[C@@H](O)[C@H](N)[C@H]3O)[C@H](N)C[C@@H]2N)[C@H](O)[C@@H](O)[C@@H]1O [Kanamycin A sulfate] | -0.456 | 673.457 | 1.616 | – | – | – | –
4 | O=C(O)C(O)C(O)C(=O)O.O=C(c1ccc(F)cc1)C1CCN(CCn2c(=O)[nH]c3ccccc3c2=O)CC1 [Ketanserin tartrate hydrate] | 0.482 | 727.865 | -0.046 | – | – | – | –
5 | CC(=O)N1CCN(c2ccc(OCC3COC(Cn4ccnc4)(c4ccc(Cl)cc4Cl)O3)cc2)CC1 (stereo not drawn) [Ketoconazole] | – | – | – | 349.5 | 0.044 | -1.382 | –
6 | O=C(c1ccccc1)c1ccc2n1CCC2C(=O)O (stereo not drawn) [Ketorolac tromethamine] | – | – | – | 396.636 | -0.269 | -0.614 | –
7 | CN1CCC(=C2c3ccccc3CC(=O)c3sccc32)CC1 [Ketotifen fumarate] | – | – | – | 425.088 | 0.006 | -0.838 | –
8 | COc1c2occc2c(OC)c2c(=O)cc(C)oc12 [Khellin] | – | – | – | 450.763 | 0.111 | -0.883 | –
9 | CCOC(=O)C1=C(C)NC(C)=C(C(=O)OCC)C1c1ccccc1/C=C/C(=O)OC(C)(C)C [Lacidipine] | – | – | – | – | – | – | B-score functional assay [1, 3]: 0.194; Ranking score [1, 4]: 957.497; B-score binding assay [2, 5]: 1.528
10 | Nc1ccn([C@@H]2CS[C@H](CO)O2)c(=O)n1 [Lamivudine] | – | – | – | 411.191 | 0.533 | -1.334 | –
11 | Nc1nnc(-c2cccc(Cl)c2Cl)c(N)n1 [Lamotrigine] | 0.153 | 756.135 | 0.084 | – | – | – | –
12 | Cc1c(OCC(F)(F)F)ccnc1C[S+]([O-])c1nc2ccccc2[nH]1 (stereo not drawn) [Lansoprazole] | – | – | – | – | – | – | B-score functional assay [1, 3]: 1.884; Ranking score [1, 4]: 961.173; B-score binding assay [2, 5]: 0.157
13 | CC(C)OC(=O)CCC/C=C\C[C@@H]1[C@@H](CC[C@@H](O)CCc2ccccc2)[C@H](O)C[C@@H]1O [Latanoprost] | – | – | – | 347.885 | -2.131 | 0.817 | –
14 | Cc1oncc1C(=O)Nc1ccc(C(F)(F)F)cc1 [Leflunomide] | 0.376 | 727.533 | -0.027 | – | – | – | –
15 | CC(C)(C)NC[C@H](O)c1ccc(O)c(CO)c1 [Levalbuterol hydrochloride] | – | – | – | – | – | – | B-score functional assay [1, 3]: 0.334; Ranking score [1, 4]: 962.353; B-score binding assay [2, 5]: 1.242
16 | c1ccc([C@H]2CN3CCSC3=N2)cc1 [Levamisole hydrochloride] | – | – | – | – | – | – | B-score functional assay [1, 3]: 0.335; Ranking score [1, 4]: 1002.84; B-score binding assay [2, 5]: 1.834
17 | CC[C@@H](C(N)=O)N1CCCC1=O [Levetiracetam] | -0.058 | 657.267 | 0.117 | – | – | – | –
18 | C[C@@H]1CN([C@H]2CC[C@](C#N)(c3ccc(F)cc3)CC2)CC[C@]1(C(=O)O)c1ccccc1 [Levocabastine hydrochloride] | -0.031 | 801.329 | 1.175 | – | – | – | –
19 | C[C@H](N)[C@H](O)c1ccc(O)c(O)c1 [Levonordefrin] | – | – | – | 346.693 | 0.177 | -1.559 | –
20 | CCC(=O)O[C@@](Cc1ccccc1)(c1ccccc1)[C@@H](C)CN(C)C [Levopropoxyphene napsylate] | – | – | – | – | – | – | B-score functional assay [1]: 0.245; Ranking score [1]: 726.763; B-score binding assay [2]: 0
21 | CCN(CC)CC(=O)Nc1c(C)cccc1C [Lidocaine hydrochloride] | 0.516 | 815.009 | 0.07 | – | – | – | –
22 | CCC[C@@H]1C[C@@H](C(=O)N[C@@H]([C@H]2O[C@H](SC)[C@H](O)[C@@H](O)[C@H]2O)[C@@H](C)O)N(C)C1 [Lincomycin hydrochloride] | – | – | – | – | – | – | B-score functional assay [1, 3]: 0.903; Ranking score [1, 4]: 960.458; B-score binding assay [2, 5]: 0.419

Row | SMILES | B-score functional assay [1, 6] | Ranking score [1, 7] | B-score binding assay [2, 8] | Ranking score [1, 9] | B-score functional assay [1, 10] | B-score binding assay [2, 11] | also measured
23 | COc1cccc(N(C)C(=S)Oc2ccc3c(c2)CCCC3)n1 [Liranaftate] | – | – | – | – | – | – | B-score functional assay [1, 3]: 0.374; Ranking score [1, 4]: 904.804; B-score binding assay [2, 5]: 0.615
24 | NCCCC[C@H](N[C@@H](CCc1ccccc1)C(=O)O)C(=O)N1CCC[C@H]1C(=O)O [Lisinopril] | – | – | – | 445.618 | 1.757 | -1.412 | –
25 | CCn1cc(C(=O)O)c(=O)c2cc(F)c(N3CCNC(C)C3)c(F)c21 (stereo not drawn) [Lomefloxacin hydrochloride] | 0.226 | 831.882 | 0.323 | – | – | – | –
26 | COc1ccc(CN2CCN(C(c3ccc(F)cc3)c3ccc(F)cc3)CC2)c(OC)c1OC.Cl.Cl [Lomerizine hydrochloride] | – | – | – | 328.713 | -0.214 | -1.084 | –
27 | CN1CCN(C2=Nc3ccccc3Oc3ccc(Cl)cc32)CC1 [Loxapine succinate] | – | – | – | 424.073 | -1.397 | 0.552 | –
28 | C#C[C@]1(O)CC[C@H]2[C@@H]3CCC4=CCCC[C@@H]4[C@H]3CC[C@@]21C [Lynestrenol] | – | – | – | – | – | – | B-score functional assay [1, 3]: 2.662; Ranking score [1, 4]: 897.58; B-score binding assay [2, 5]: 0.007
29 | NCc1ccc(S(N)(=O)=O)cc1 [Mafenide hydrochloride] | 0.341 | 703.397 | -0.055 | – | – | – | –
30 | CNCCCC12CCC(c3ccccc31)c1ccccc12 [Maprotiline hydrochloride] | – | – | – | 403.36 | -0.051 | -0.835 | –
31 | COC(=O)Nc1nc2ccc(C(=O)c3ccccc3)cc2[nH]1 [Mebendazole] | – | – | – | 327.443 | -0.824 | -0.531 | –
32 | CN1CCc2c(c3ccccc3n2Cc2ccccc2)C1.O=S(=O)(O)c1cccc2c(S(=O)(=O)O)cccc12 [Mebhydroline 1,5-naphtalenedisulfonate] | – | – | – | – | – | – | B-score functional assay [1, 3]: 0.022; Ranking score [1, 4]: 893.031; B-score binding assay [2, 5]: 1.889
33 | CNC1(C)C2CCC(C2)C1(C)C (stereo not drawn) [Mecamylamine hydrochloride] | – | – | – | 340.338 | -0.591 | -0.663 | –
34 | CN(C)CCOC(=O)COc1ccc(Cl)cc1.Cl [Meclofenoxate hydrochloride] | – | – | – | 355.4 | -0.036 | -1.168 | –
35 | CC(=O)[C@H]1CC[C@H]2[C@@H]3C[C@H](C)C4=CC(=O)CC[C@]4(C)[C@H]3[C@@H](O)C[C@]12C [Medrysone] | – | – | – | 406.005 | -0.706 | -0.142 | –
36 | CCN(CC)CCNC(=O)COc1ccc(OC)cc1.Cl [Mefexamide hydrochloride] | – | – | – | – | – | – | B-score functional assay [1, 3]: 1.015; Ranking score [1, 4]: 979.142; B-score binding assay [2, 5]: 0.456
37 | OC(c1cc(C(F)(F)F)nc2c(C(F)(F)F)cccc12)C1CCCCN1 (stereo not drawn) [Mefloquine hydrochloride] | 1.734 | 704.329 | -0.336 | – | – | – | –
38 | CC(=O)O[C@]1(C(C)=O)CC[C@H]2[C@@H]3C=C(C)C4=CC(=O)CC[C@]4(C)[C@H]3CC[C@@]21C [Megestrol acetate] | – | – | – | – | – | – | B-score functional assay [1, 3]: 0.476; Ranking score [1, 4]: 869.581; B-score binding assay [2, 5]: 0.319
39 | COc1ccc2[nH]cc(CCNC(C)=O)c2c1 [Melatonin] | – | – | – | – | – | – | B-score functional assay [1, 3]: 0.509; Ranking score [1, 4]: 864.497; B-score binding assay [2, 5]: 0.248
40 | C=C1C[C@H]2[C@@H]3C=C(C)C4=CC(=O)CC[C@]4(C)[C@H]3CC[C@]2(C)[C@@]1(OC(C)=O)C(C)=O [Melengestrol acetate] | – | – | – | 323.966 | -2.447 | 1.224 | –
41 | CC12CC3CC(C)(C1)CC(N)(C3)C2 [Memantine Hydrochloride] | 1.46 | 837.42 | -0.02 | – | – | – | –
42 | Cc1ccccc1OCC(O)CO (stereo not drawn) [Mephenesin] | -0.317 | 689.632 | 1.192 | – | – | – | –
43 | CNC(C)(C)Cc1ccccc1.CNC(C)(C)Cc1ccccc1.O=S(=O)(O)O [Mephentermine hemisulfate] | -0.093 | 728.877 | 0.758 | – | – | – | –
